# The source made the active and inactive calls. The rule behind the calls is not given here.
# What was measured:
# [1] = biological target: T1, 5'-AMP-activated protein kinase (Mus musculus) (UniProt Q5EG47+Q8BRK8+Q6PAM0+O54950+Q91WG5+Q9R078+Q8BGM7); assay: Activation of AMPK in mouse 3T3-L1 cells assessed as increase in AMPKbeta phosphorylation in early differentiation at 0.5 to 5 uM after 48 hrs by Western blot analysis; assay type: cell-based; conditions: filed as activator, dose 0.5-5 µM
# [2] = biological target: T1, 5'-AMP-activated protein kinase (Mus musculus); assay: Activation of AMPK in mouse 3T3-L1 cells assessed as increase in AMPKalpha phosphorylation in early differentiation at 0.5 to 5 uM after 48 hrs by Western blot analysis; assay type: cell-based; conditions: filed as activator, dose 0.5-5 µM
# [3] = tested on: 3T3-L1; assay: Inhibition of AKT/GSK3beta signalling pathway in mouse 3T3-L1 cells assessed as reduction in GSK3beta phosphorylation in early differentiation at 0.5 to 5 uM after 48 hrs by Western blot analysis; assay type: cell-based; conditions: dose 0.5-5 µM
# [4] = (§1) Cytotoxicity against mouse 3T3-L1 pre-adipocytes assessed as reduction in cell viability after 48 hrs by MTT assay; assay type: toxicity, cell-based; conditions: 3T3-L1 pre-adipocytes
# [5] = tested on: 3T3-L1; assay: as §1; assay type: toxicity, cell-based; conditions: 3t3-l1, 48 h, time 48 hrs
# [6] = (§2) Cytotoxicity against mouse 3T3-L1 adipocytes assessed as reduction in cell viability after 48 hrs by MTT assay; assay type: toxicity, cell-based; conditions: 3T3-L1 adipocytes
# [7] = tested on: 3T3-L1; assay: as §2; assay type: toxicity, cell-based; conditions: 3t3-l1, 48 h, time 48 hrs
# [8] = Cytotoxicity against human PCS-210-010 pre-adipocytes assessed as reduction in cell viability after 48 hrs by MTT assay; assay type: toxicity, cell-based
# [9] = Cytotoxicity against human PCS-210-010 adipocytes assessed as reduction in cell viability after 48 hrs by MTT assay; assay type: toxicity, cell-based
# [10] = tested on: 3T3-L1; assay: Cytotoxicity against mouse 3T3-L1 pre-adipocytes assessed as reduction in cell viability at >=10 uM after 48 hrs by MTT assay; assay type: toxicity, cell-based; conditions: 3t3-l1, 48 h
# [11] = Cytotoxicity against human PCS-210-010 pre-adipocytes assessed as reduction in cell viability at >=10 uM after 48 hrs by MTT assay; assay type: toxicity, cell-based; conditions: pcs-210-010, 48 h
# [12] = tested on: 3T3-L1; assay: Cytotoxicity against mouse 3T3-L1 pre-adipocytes assessed as reduction in cell viability at >=25 uM after 48 hrs by MTT assay; assay type: toxicity, cell-based; conditions: 3t3-l1, 48 h
# [13] = Cytotoxicity against human PCS-210-010 pre-adipocytes assessed as reduction in cell viability at >=25 uM after 48 hrs by MTT assay; assay type: toxicity, cell-based; conditions: pcs-210-010, 48 h
# [14] = tested on: 3T3-L1; assay: Induction of apoptosis in mouse 3T3-L1 pre-adipocytes at 0.5 to 5 uM after 48 hrs by PI/Hoechst 33342 staining based fluorescence microscopic analysis; assay type: functional, cell-based; conditions: dose 0.5-5 µM
# [15] = tested on: 3T3-L1; assay: Induction of apoptosis in mouse 3T3-L1 adipocytes at 0.5 to 5 uM after 48 hrs by PI/Hoechst 33342 staining based fluorescence microscopic analysis; assay type: functional, cell-based; conditions: dose 0.5-5 µM
# [16] = tested on: PCS-210-010; assay: Induction of apoptosis in human PCS-210-010 pre-adipocytes at 0.5 to 5 uM after 48 hrs by PI/Hoechst 33342 staining based fluorescence microscopic analysis; assay type: functional, cell-based; conditions: dose 0.5-5 µM
# [17] = tested on: PCS-210-010; assay: Induction of apoptosis in human PCS-210-010 adipocytes at 0.5 to 5 uM after 48 hrs by PI/Hoechst 33342 staining based fluorescence microscopic analysis; assay type: functional, cell-based; conditions: dose 0.5-5 µM
# [18] = tested on: 3T3-L1; assay: Inhibition of preadipocyte differentiation in mouse 3T3-L1 cells assessed as reduction in lipid droplet accumulation in early differentiation at 0.5 to 5 uM incubated for 8 days by Oil Red O staining based inverted optical microscopic analysis; assay type: functional, cell-based; conditions: dose 0.5-5 µM, time 8.0 day
# [19] = tested on: 3T3-L1; assay: Inhibition of preadipocyte differentiation in mouse 3T3-L1 cells assessed as reduction in lipid droplet accumulation in maturation at 0.5 to 5 uM incubated for 8 days by Oil Red O staining based inverted optical microscopic analysis; assay type: functional, cell-based; conditions: dose 0.5-5 µM, time 8.0 day
# [20] = tested on: PCS-210-010; assay: Inhibition of preadipocyte differentiation in human PCS-210-010 cells assessed as reduction in lipid droplet accumulation in early differentiation at 0.5 to 5 uM incubated for 8 days by Oil Red O staining based inverted optical microscopic analysis; assay type: functional, cell-based; conditions: dose 0.5-5 µM, time 8.0 day
# [21] = tested on: PCS-210-010; assay: Inhibition of preadipocyte differentiation in human PCS-210-010 cells assessed as reduction in lipid droplet accumulation in maturation at 0.5 to 5 uM incubated for 8 days by Oil Red O staining based inverted optical microscopic analysis; assay type: functional, cell-based; conditions: dose 0.5-5 µM, time 8.0 day
# [22] = tested on: 3T3-L1; assay: Inhibition of preadipocyte differentiation in mouse 3T3-L1 cells assessed as reduction in triglyceride accumulation in early differentiation at 0.5 to 5 uM incubated for 8 days by colorimetric assay; assay type: functional, cell-based; conditions: dose 0.5-5 µM, time 8.0 day, DDE = dose-dependent effect
# [23] = tested on: 3T3-L1; assay: Inhibition of preadipocyte differentiation in mouse 3T3-L1 cells assessed as reduction in triglyceride accumulation in maturation at 0.5 to 5 uM incubated for 8 days by colorimetric assay; assay type: functional, cell-based; conditions: dose 0.5-5 µM, time 8.0 day, DDE = dose-dependent effect
# [24] = tested on: PCS-210-010; assay: Inhibition of preadipocyte differentiation in human PCS-210-010 cells assessed as reduction in triglyceride accumulation in early differentiation at 0.5 to 5 uM incubated for 8 days by colorimetric assay; assay type: functional, cell-based; conditions: dose 0.5-5 µM, time 8.0 day, DDE = dose-dependent effect
# [25] = tested on: PCS-210-010; assay: Inhibition of preadipocyte differentiation in human PCS-210-010 cells assessed as reduction in triglyceride accumulation in maturation at 0.5 to 5 uM incubated for 8 days by colorimetric assay; assay type: functional, cell-based; conditions: dose 0.5-5 µM, time 8.0 day, DDE = dose-dependent effect
# [26] = tested on: 3T3-L1; assay: Inhibition of preadipocyte differentiation in mouse 3T3-L1 cells assessed as increase in glycerol release in early differentiation at 0.5 to 5 uM incubated for 8 days by colorimetric assay; assay type: functional, cell-based; conditions: dose 0.5-5 µM, time 8.0 day, DDE = dose-dependent effect
# [27] = tested on: 3T3-L1; assay: Inhibition of preadipocyte differentiation in mouse 3T3-L1 cells assessed as increase in glycerol release in maturation at 0.5 to 5 uM incubated for 8 days by colorimetric assay; assay type: functional, cell-based; conditions: dose 0.5-5 µM, time 8.0 day, DDE = dose-dependent effect
# [28] = tested on: PCS-210-010; assay: Inhibition of preadipocyte differentiation in human PCS-210-010 cells assessed as increase in glycerol release in early differentiation at 0.5 to 5 uM incubated for 8 days by colorimetric assay; assay type: functional, cell-based; conditions: dose 0.5-5 µM, time 8.0 day, DDE = dose-dependent effect
# [29] = tested on: PCS-210-010; assay: Inhibition of preadipocyte differentiation in human PCS-210-010 cells assessed as increase in glycerol release in maturation at 0.5 to 5 uM incubated for 8 days by colorimetric assay; assay type: functional, cell-based; conditions: dose 0.5-5 µM, time 8.0 day, DDE = dose-dependent effect
# [30] = tested on: 3T3-L1; assay: Down regulation of FAS protein expression in mouse 3T3-L1 cells in early differentiation at 0.5 to 5 uM after 8 days by western blot analysis; assay type: functional, cell-based; conditions: dose 0.5-5 µM, time 8.0 day
# [31] = tested on: 3T3-L1; assay: Antiproliferative activity against mouse 3T3-L1 cells assessed as reduction in cell proliferation at 0.5 to 5 uM after 24 to 72 hrs by crystal violet staining based assay; assay type: functional; conditions: dose 0.5-5 µM, time 24-72 hrs
# [32] = tested on: 3T3-L1; assay: Down regulation of Cyclin D1 protein expression in mouse 3T3-L1 cells at 0.5 to 5 uM after 18 hrs by western blot analysis; assay type: functional, cell-based; conditions: dose 0.5-5 µM
# [33] = tested on: 3T3-L1; assay: Effect on Cyclin D3 protein expression in mouse 3T3-L1 cells at 0.5 to 5 uM after 18 hrs by western blot analysis; assay type: functional, cell-based; conditions: dose 0.5-5 µM
# [34] = tested on: 3T3-L1; assay: Down regulation of CDK6 protein expression in mouse 3T3-L1 cells at 0.5 to 5 uM after 18 hrs by western blot analysis; assay type: functional, cell-based; conditions: dose 0.5-5 µM
smiles,measurement,setting,value
COc1cc(CCc2cc(O)c(O)c(OC)c2)ccc1O,Activity,[1],Active
same,Activity,[2],Active
same,inhibition,[3],Active
same,IC50 at 48 h,[4],35.5 µM
same,Activity,[5],Toxic
same,IC50 at 48 h,[6],72.4 µM
same,Activity,[7],Toxic
same,IC50 at 48 h,[8]; PCS-210-010 pre-adipocytes,34.6 µM
same,Activity,"[8]; pcs-210-010, 48 h, time 48 hrs",Toxic
same,IC50 at 48 h,[9]; PCS-210-010 adipocytes,71.9 µM
same,Activity,"[9]; pcs-210-010, 48 h, time 48 hrs",Toxic
same,Activity,[10],Toxic
same,Activity,[11],Toxic
same,Activity,[12],Toxic
same,Activity,[13],Toxic
same,Activity,[14],Non-Toxic
same,Activity,[15],Non-Toxic
same,Activity,[16],Non-Toxic
same,Activity,[17],Non-Toxic
same,inhibition,[18],Active
same,inhibition,[19],Active
same,inhibition,[20],Active
same,inhibition,[21],Active
same,inhibition,[22],Dde
same,inhibition,[23],Dde
same,inhibition,[24],Dde
same,inhibition,[25],Dde
same,inhibition,[26],Dde
same,inhibition,[27],Dde
same,inhibition,[28],Dde
same,inhibition,[29],Dde
same,Activity,[30],Active
same,Activity,[31],Active
same,Activity,[32],Active
same,Activity,[33],Active
same,Activity,[34],Active
